Columns and labels:
[1] = system: old DBA/2J mice; assay: Reduction of intraocular pressure (IOP) after application to the eye, TONOLab tonometer; type: in vivo; details: versus basal IOP
Description: The main risk factor in the glaucoma is represented by the high intraocular pressure (IOP). See for instance: Libby R. T. et al., Vis Neurosci. 2005 Sep.-Oct., 22(5):637-48 and Tomida I. et al., Br. J. Opthalmol. 2004 May, 88(5):708-13.
By using the animal model of old DBA/2J mice (see above) it has been evaluated the efficacy of the compound obtained in example 3.1 in reducing the IOP. As said, this compound has a good affinity towards the CB1 receptors in vitro (example 4) and a CB1 agonist action in vivo (example 5). The intraocular pressure has been determined by a TONOLab Tonometer (Tiolat Oy), as reported by M. E. Pease et al. in J. Glaucoma, 2006 December, 15(6):512-519. The compound was dispersed in the commercial emulsion Tocrisolve™, (Tocris), at a concentration of […] and applied to the eye of old DBA/2J mice (8-10 month age; basal IOP comprised between 19.0 and 22.5 mmHg). The applied emulsion volumes were such that the compound doses resulted, respectively, of 100 μg or 50 μg. WIN 55212-2 was dispersed in Tocrisolve™at the concentration of 5 mg/ml and was the reference cannabinoidergic compound. The determination of the ocular pressure was carried out every 30 minutes up to two hours starting from the administration. The obtained results (average of 6 measurements at each time for experimental groups of 8-10 animals for group/dose) are reported in Table 3. IOP decrease was expressed in percent with respect to the basal value.

[2] = system: men; details: local administration in the eye; cited from earlier work

Cc1c(C(=O)c2cccc3ccccc23)c2cccc3c2n1[C@H](CN1CCOCC1)CO3 [WIN 55212-2]
Intraocular Pressure Decrease ([1]; 50 μg to the eye in Tocrisolve, 30 minutes): 4.3% | Intraocular Pressure Decrease ([1]; 50 μg to the eye in Tocrisolve, 60 minutes): 3.0% | Intraocular Pressure Decrease ([1]; 50 μg to the eye in Tocrisolve, 90 minutes): 2.0% | Intraocular Pressure Decrease ([1]; 50 μg to the eye in Tocrisolve, 120 minutes): 1.9% | Intraocular Pressure Decrease ([1]; 100 μg to the eye in Tocrisolve, 30 minutes): 23.1% | Intraocular Pressure Decrease ([1]; 100 μg to the eye in Tocrisolve, 60 minutes): 21.3% | Intraocular Pressure Decrease ([1]; 100 μg to the eye in Tocrisolve, 90 minutes): 18.1% | Intraocular Pressure Decrease ([1]; 100 μg to the eye in Tocrisolve, 120 minutes): 13.2% | IOP reduction in men [2]: significant IOP reduction
